# Assay results as given in patent US20220265775A1, “COMPOSITIONS AND METHODS FOR TREATING PULMONARY EDEMA OR LUNG INFLAMMATION” (priority 2019, published 2022).
# Test system: RLE-6TN cells
# Test: RLE-6TN cell survival under hyperoxia and recovery, viable cells counted by trypan blue exclusion
# Type: cell-based, rat
# Experimental: FIG. 7. […] The cells were cultured in DMEM/F12 with 10% FBS in 21% O2 and 5% CO2 overnight. […] The viable cells are counted immediately after 72-hour hyperoxia exposure. Cell viability is assessed with trypan blue. The amount of viable cells under specific conditions is presented as a percentage of the cell number from hyperoxia alone. Data are mean±s.d. of four independent experiments with *=P<0.05; **=P<0.01.
# FIG. 8. […] In both (A) and (B), the number of viable cells under specific conditions is presented as a percentage of the cell number related to hyperoxia alone in the same experiment. Data are mean s.d. of four independent experiments with *=P<0.05; **=P<0.01.
# FIG. 10. HO-1 upregulation is required for T3-increased RLE-6TN cell survival in hyperoxia. […] The cells were then collected for Western Blot analysis. (B) The cells were incubated in 21% O2 and 5% CO2 for 72 hours in the present of HO-1 inhibitor Tin Protoporphyrin IX (10^−6M). […] Cell viability is assessed with trypan blue. The number of viable cells under specific conditions is presented as a percentage of the cell number related to hyperoxia alone. Data are mean±s.d. of three independent experiments with *=P<0.05; **=P<0.01.
# FIG. 11. PI3K inhibitor wortmannin blocked T3-induced cell survival in hyperoxia. […] Cell viability is assessed with trypan blue. The number of viable cells under specific conditions is presented as a percentage of the cell number related to hyperoxia alone. Data are mean±s.d. of four independent experiments with *=P<0.05; **=P<0.01.
# At the end of the hyperoxia exposure period, the viable cells were counted by trypan blue dye exclusion.
SMILES,"AT2 cell number in room air (21% O2 for 72 hours, Tin Protoporphyrin IX 10^−6M)","effect on T3-caused increase in cell survival in hyperoxia (90% O2 72 hours, T3 10^−6M with Tin Protoporphyrin IX 10^−6M)","number of viable AT2 cells at 48 hours of recovery (90% oxygen for 24 or 48 hours, compound present only during recovery in 21% O2)","effect on cell survival under hyperoxia (90% oxygen for 72 hours, 10^−6M)"
"C=Cc1c2[n-]c(c1C)/C=c1\[n-]/c(c(C)c1C=C)=C\c1[n-]c(c(CCC(=O)O)c1C)C=c1[n-]/c(c(C)c1CCC(=O)O)=C\2.[Sn+4] [Tin protoporphyrin, Tin Protoporphyrin IX]",no effect on AT2 cell number in room air,blocked the T3-caused increase in cell survival and augmented cell death,,
N[C@@H](Cc1ccc(Oc2cc(I)c(O)c(I)c2)c(I)c1)C(=O)O [rT3],,,no protective effect,no role in cell survival
